Results as given in patent US10238622B2, “Methods of treating and preventing/reducing the likelihood of Mesial temporal lobe epilepsy (TLE)” (priority 2009, dated 2019).

How the values were obtained:
[1] = test system: Li-pilocarpine SE rats; test: Lithium-pilocarpine status epilepticus induction, drugs given 1 hour after SE onset; format: in vivo, rat; details: Diazepam 4 mg/kg i.m.; for effect on seizures (status epilepticus): given 1 hour after SE onset, Atropine sulfate 10 mg/kg s.c.
Procedure: (§1) All procedures were approved by the Institutional Animal Care and Use Committee at the University of New Mexico Health Sciences Center and were in accordance with National Institutes of Health Guide for the Care and Use of Laboratory Animals. Our protocol for the experiments here was a slight modification of a protocol published by Andre et al. (Andre et al., 2007). Twenty four hours prior to seizure induction, male Wistar rats, 2-3 months old, were administered s.c. 3 mmol/kg lithium chloride dissolved in isotonic NaCl saline Pilocarpine was then administered s.c. (25 mg/kg in isotonic NaCl). Once generalized limbic convulsions began, subcutaneous needle EEG electrodes were placed to confirm the development of status epilepticus (SE), defined as the occurrence of continuous high amplitude EEG spiking (Ormandy et al., 1989). These needles were fashioned from 25 gauge hypodermic needles (Becton Dickinson), with the hub cut off and bent at 60 degree angles so they will stay in place. One needle was inserted subcutaneously in the scalp over the parietal cortex and the other, which served as the reference electrode, over the scapula. […] Recording was then generally discontinued. Atropine sulfate (10 mg/kg s.c.) and Diazepam (4 mg/kg i.m.) were administered in order to improve survival, decrease anxiety and induce muscle relaxation. […] 12 hours after SE onset the EEG was recorded again for 5-10 min, and all rats had intermittent or organized, i.e. bursts of EEG spiking.

[2] = test system: Li-pilocarpine SE rats; test: Seizures after acute bumetanide injection, video recordings, 12-17 weeks after SE (FIG. 12); format: in vivo, rat; details: bumetanide 0.2 mg/kg body weight i.p., 12-17 weeks after Li-pilocarpine SE, n=5 rats
Procedure: All procedures were approved by the Institutional Animal Care and Use Committee at the University of New Mexico Health Sciences Center and were in accordance with National Institutes of Health Guide for the Care and Use of Laboratory Animals. Our protocol for the experiments here was a slight modification of a protocol published by Andre et al. (Andre et al., 2007). Twenty four hours prior to seizure induction, male Wistar rats, 2-3 months old, were administered s.c. 3 mmol/kg lithium chloride dissolved in isotonic NaCl saline Pilocarpine was then administered s.c. (25 mg/kg in isotonic NaCl). Once generalized limbic convulsions began, subcutaneous needle EEG electrodes were placed to confirm the development of status epilepticus (SE), defined as the occurrence of continuous high amplitude EEG spiking (Ormandy et al., 1989). These needles were fashioned from 25 gauge hypodermic needles (Becton Dickinson), with the hub cut off and bent at 60 degree angles so they will stay in place. […] 12 hours after SE onset the EEG was recorded again for 5-10 min, and all rats had intermittent or organized, i.e. bursts of EEG spiking.
Five Li-pilocarpine SE rats were subjected to a sequence of bumetanide or vehicle injections (5% ethanol in physiological saline, i.p., dates given on bottom line), and seizures occurring in the following 8 hours were analyzed by video recordings.

[3] = test system: EC L5 neurons; test: Polysynaptic burst responses to single synaptic stimulation in acute brain slices 3 weeks post SE; format: cell-based, rat
Procedure: (§2) All experiments were performed on acute horizontal brain slices containing temporal neocortex, entorhinal cortex, subiculum and the ventral hippocampus. Control, or rats 2 or 3 weeks post-seizure, were anesthetized deeply with a mixture of ketamine and xylazine (85 and 15 mg/ml, respectively) and decapitated. The brains were removed rapidly and placed in an oxygenated (95% O2/5% CO2) ice-cold cutting solution containing (in mM): 3 KCl, 1.25 NaH2PO4, 6 MgSO4, 26 NaHCO3, 0.2 CaCl2, 10 glucose, 220 sucrose, and 0.43 ketamine. Slices (350 μm) were cut in ice-cold cutting solution with a vibratome (Dosaka DTK-1000) and transferred from there into Artificial Cerebro-Spinal Fluid (ACSF, in mM: 126 NaCl, 3 KCl, 1.25 NaH2PO4, 1 MgSO4, 26 NaHCO3, 2 CaCl2, and 10 glucose) equilibrated with 95% O2/5% CO2 at 34° C. temperature for recovery. After 1 hr ACSF was changed again, and the slices were held at room temperature until used for recording.
(§3) Individual slices were transferred to a recording chamber mounted on a fixed-stage microscope (Zeiss Axioskop, Jena, Germany) and superfused with warmed (34° C.), oxygenated ACSF at 2 ml/min. Intracellular recordings were made from EC layer 5 neurons with borosilicate glass sharp microelectrodes (80-150 MΩ) filled with either 1 M K2SO4, or 0.5 M potassium acetate/0.5 M KCl for lower electrode resistance, or 2 M CsSO4/0.1 M KCl for improved space clamp. […] Therefore all final recordings/data for bumetanide effects on GABAergic PSP reversal potential were obtained with microelectrodes filled with 1 M K2SO4 or 2 M CsSO4/0.1 M KCl.
(§4) Neurons were impaled in the medial entorhinal cortex just above the angular bundle, up to ¼ of cortex thickness, using a Nanostepper micropositioner (Scientific Precision Instruments, Oppenheim, Germany). Recordings were made using an Axoclamp 2B amplifier and digitized and recorded using an Axon Instruments Digidata 1322A (Molecular Devices, Union City, Calif.). Neurons with a RMP negative to −68 mV were tested with hyperpolarizing pulses to ˜−85 mV for the presence of Ih indicative of pyramidal neurons (Egorov et al., 2002; Egorov et al., 2003). […] Concentric bipolar stimulating electrodes (200 μm diameter, FHC Inc., ME, USA) were placed in layer 5 of EC, ˜150-250 μm from the recording electrode. Stimuli (70-100 μs, 100-800 nA) were controlled by a Master 8 programmable pulse generator connected to a stimulus isolation unit (A.M.P.I., Jerusalem, Israel). Full input-output relations for the EPSP and the IPSP were recorded, and stimulation intensities giving 70-90% of maximal response were used. Where indicated stimulation intensity was reduced to elicit 5-10% of maximal response.
For these determinations, a polysynaptic burst was defined as a post-synaptic response lasting more than 150 ms at half amplitude, elicited from −75 mV<RMP<−68 mV.

[4] = test system: EC L5 neurons; test: GABAAergic PSP reversal potential, sharp microelectrode recording in acute brain slices 3 weeks post SE; format: cell-based, rat
Procedure: as §2, §3, §4

[5] = test system: pilocarpine SE rat; test: Seizures provoked by open field exposure 6 weeks after end of chronic bumetanide treatment (FIG. 20); format: in vivo; details: 27 weeks post SE, 6 weeks after end of bumetanide treatment, within 15 min, n=6 rats per group
Procedure: as §1, with “discontinued.” for “discontinued. Atropine sulfate (10 mg/kg s.c.) and Diazepam (4 mg/kg i.m.) were administered in order to improve survival, decrease anxiety and induce muscle relaxation.”, “spiking. […]” for “spiking.”

[6] = test system: Li-pilocarpine SE rats; test: Spontaneous seizures with chronic bumetanide via the drinking water, 8 hour video recording (FIG. 18, 19); format: in vivo, rat
Procedure: as §1, with “discontinued.” for “discontinued. Atropine sulfate (10 mg/kg s.c.) and Diazepam (4 mg/kg i.m.) were administered in order to improve survival, decrease anxiety and induce muscle relaxation.”, “spiking. […]” for “spiking.”

[7] = test system: adult rat TLE model; details: infusion of very high doses, first 2 weeks after SE; cited from earlier work
[8] = test system: post SE rats; test: Entering-a-dark box behavior in an open field (FIG. 21); format: in vivo, rat; details: chronic bumetanide from day 16 post SE for 12 weeks, 8 rats; control rats 78%, untreated post SE rats 15%
Procedure: as §1, with “discontinued.” for “discontinued. Atropine sulfate (10 mg/kg s.c.) and Diazepam (4 mg/kg i.m.) were administered in order to improve survival, decrease anxiety and induce muscle relaxation.”, “spiking. […]” for “spiking.”

## CN1C(=O)CN=C(c2ccccc2)c2cc(Cl)ccc21 [Diazepam]
[1]
  muscle relaxation: induced muscle relaxation within one hour
  effect on seizures (status epilepticus): did not stop seizures

## CN1[C@@H]2CC[C@H]1CC(OC(=O)C(CO)c1ccccc1)C2.CN1[C@@H]2CC[C@H]1CC(OC(=O)C(CO)c1ccccc1)C2.O=S(=O)(O)O (stereo partly shown) [atropine, Atropine sulfate]
[1]
  effect on seizures (status epilepticus): Nor did atropine stop seizures

## CCCCNc1cc(C(=O)O)cc(S(N)(=O)=O)c1Oc1ccccc1 [bumetanide]
[2]
  seizures occurring in the 8 hours following injection: suppression of seizures
[3]; 30 min washout, n=14
  neurons with a polysynaptic response after washout of bumetanide: 35.1%
[3]; bumetanide 10 μM, 3 weeks post SE
  decrease of response duration at half-maximal amplitude in bumetanide: 36±9 % of the control response
[3]; bumetanide 10 μM, cells from rats 3 weeks after pilocarpine insult, n=14, 64.8% before drug
  neurons with a polysynaptic response in bumetanide: 11.6%
[3]; recovered to, relative to control response
  response duration at half-maximal amplitude during washout of bumetanide: 75±11%
[4]; 3 weeks after SE, CNQX 10 μM and APV 50 μM present, shifts from −29.7 mV
  E(PSP) of an EC L5 neuron after a 20 min exposure to bumetanide (FIG. 10A): −60.9 mV
[4]; 3 weeks after SE, in the presence of bumetanide
  reduction of driving force at −45 mV versus control rats: ~42%
[4]; 3 weeks after SE, ˜26 mV in control rats
  driving force for Cl− at −45 mV in the presence of bumetanide: ~15 mV
[4]; 3 weeks post SE, n=5
  absolute voltage average E(PSP) during washout of bumetanide: −34.2±3.4 mV
[4]; bumetanide 10 μM, EC L5 neurons 3 weeks post SE, RMP ˜−72 mV, more than +40 mV without drug
  average PSP reversal potential relative to RMP: +10 mV
[5]
  seizures provoked by open field exposure as % of time post SE-matched control SE rats: less than 15%
[6]; bumetanide via the drinking water, 0.65±0.13 mg/day, two other rats had reduced seizures
  rats in which bumetanide prevented seizures completely: 4 rats
[6]; three and six weeks after end of 20 weeks chronic bumetanide via drinking water, n=6 rats per group
  seizure occurrence as % of seizures in time post SE-matched control SE rats: 15-22%
[7]
  suppression of SRS by bumetanide treatment: complete failure
[8]
  trials in which rats entered the dark box: 67 % of trials

## picrotoxin
[3]; picrotoxin 100 μM, 3 weeks post SE, n=8 neurons, 9.8±0.8 before drug
  number of spikes in polysynaptic burst responses in picrotoxin: 7.9±0.7 spikes per response
[3]; picrotoxin 100 μM, FIG. 11D
  burst duration in picrotoxin, result in words: did not reach statistical significance
[3]; picrotoxin 100 μM, averages of ten responses, n=8, p=0.094
  reduction of action potential amplitudes in the averaged burst responses: 10.5±3.4%
[3]; picrotoxin 100 μM, trend, n=8, p=0.094
  decrease of the duration of polysynaptic bursts: 10.5%
